The record followed here is ChEMBL document CHEMBL3808372, “Identification of quinones as novel PIM1 kinase inhibitors” (Bioorg Med Chem Lett, 2016).

Test [1] addresses Serine/threonine-protein kinase pim-1 (Homo sapiens, UniProt P11309). Put plainly: Inhibition of recombinant human Pim1.
The nature of test [2]: Cytotoxicity against human DU145 cells assessed as cell growth inhibition after 72 hrs by Alamar blue assay. The test is classed as functional, cell-based. To be noted: DU-145, 72 h.

Sequence of Serine/threonine-protein kinase pim-1 (P11309 whole entry): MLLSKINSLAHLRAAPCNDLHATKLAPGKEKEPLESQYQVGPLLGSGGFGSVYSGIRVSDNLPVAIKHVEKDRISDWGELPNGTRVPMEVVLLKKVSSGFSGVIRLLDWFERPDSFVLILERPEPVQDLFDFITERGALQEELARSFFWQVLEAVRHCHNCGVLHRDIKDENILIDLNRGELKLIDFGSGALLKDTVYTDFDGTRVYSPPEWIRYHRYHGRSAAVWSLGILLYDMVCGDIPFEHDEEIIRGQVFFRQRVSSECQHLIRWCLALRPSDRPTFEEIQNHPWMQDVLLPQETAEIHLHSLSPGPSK

With `CC(C)(C)OC1CC(=O)CC2C(=O)c3cccc(O)c3C(=O)C12` (stereo unspecified), the IC50 in test [1] turned out to be 23.8 µM.

On to `CC(C)(C)OC1CC(O)CC2C(=O)c3c(O)ccc(O)c3C(=O)C12` (stereo unspecified), for which the figures for the IC50 in test [2] and in test [1] were 3.21 µM and 3.5 µM, respectively.

`Cc1cc(O)c2c(c1)C(=O)C=CC2=O` [RAMENTACEONE]: in test [1], the IC50 was determined as 28 µM.

As for `O=Cc1cc(O)c2c(c1O)C(=O)C=CC2=O`, the IC50 in test [1] stood at 28 µM.

Turning to `COc1cccc2c1C(=O)c1c(O)ccc(O)c1C2=O`, in test [1], the IC50 was determined as 11.6 µM.

As for `O=C1C=C(CBr)C(=O)c2c(O)ccc(O)c21`, the concentration for half-maximal inhibition (IC50) in test [1] was 27 µM.

Regarding `Oc1ccc(O)c2c(O)c3c(O)ccc(O)c3c(O)c12`, in test [1], the IC50 is 57.1 µM.

On to `CC(C)C(C)OC1CC(=O)CC2C(=O)c3c(O)ccc(O)c3C(=O)C12` (stereo unspecified), for which the IC50 in test [2] was determined as 4.06 µM; in test [1], 3.6 µM.

Regarding `CC(=O)Oc1ccc(O)c2c1C(=O)C=CC2=O`, the IC50 in test [1] is 3 µM.

As to `Cc1cc(O)c2c(c1)C(=O)c1cc(O)cc(O)c1C2=O` [EMODIN], the IC50 in test [2] turned out to be 2.02 µM; in test [1], 2.5 µM.

`COc1c(O)c(O)c2c(c1O)C(=O)c1cc(C)cc(O)c1C2=O`: the IC50 in test [2] stood at 3.93 µM; in test [1], 21.4 µM.

For `O=C1C(CO)=C(CO)C(=O)c2c(O)ccc(O)c21`, the IC50 in test [1] amounted to 7.4 µM.
